≈ marks a conversion by molar mass, not a printed value.

One may read the IC50 as the concentration needed to halve the response being measured. The term melting point denotes the temperature, or range, at which the solid turns liquid.

In data set [1] the test system is resistant line L1210/mdr (L1210VCR). The data set can be described thus: XTT proliferation test, L1210VCR. It counts as cell-based, murine. Conditions: Mus musculus, resistant L1210VCR cells. The text has this: (§1) Substance 1 was investigated for its antiproliferative action in a proliferation test using established tumor cell (D. A. Scuderio et al. Cancer Res. 1988, 48, 4827–4833). The test used determines the cellular dehydrogenase activity and permits a determination of the cell vitality and, indirectly, of the cell count. The cell lines used are the human cervical carcinoma cell line KB/HeLa (ATCC CCL17), the ovarial adeno carcinoma cell line SKOV-3 (ATCC HTB77), the human glioblastoma cell line SF-268 (NCl 503138) and the pulmonary carcinoma cell line NCl-H460 (NCl 503473). Substance 1 was further characterized by testing with regard to multidrug-resistant cell lines as compared with the nonresistant wild-type cell lines. The cell lines tested are the murine cell line L1210, the acute myeloid leukemia cell line LT12 and the resistant lines L1210/mdr and LT12/mdr. Further test systems used are the murine P388 cell line (methylcholanthrene-induced lymphoid neoplasm) and the doxorubicin-resistant P388 cell line.

Data set [2] concerns resistant line LT12/mdr. The data set can be described thus: XTT proliferation test, LT12mdr. It counts as cell-based. Conditions: Rattus norvegicus, multidrug-resistant LT12mdr cells.
Excerpt: as §1
(In general: Tetrazolium assays rely on reduction of a dye to a coloured formazan, in cell work by metabolically active cells.)

Data set [3] has as its system doxorubicin-resistant P388 cell line. In words: XTT proliferation test, P388ADR. Type of data set: cell-based, murine. Conditions: Mus musculus, doxorubicin-resistant P388ADR cells.
Excerpt: as §1

For data set [4], the system named is ovarial adeno carcinoma cell line SKOV-3 (ATCC HTB77). The data set can be described thus: XTT proliferation/cytotoxicity test, SK-OV-3. It counts as cell-based. The conditions noted are these: Homo sapiens, SK-OV-3 cells. An excerpt: (§2) Substance 1 was investigated for its antiproliferative action in a proliferation test using established tumor cell (D. A. Scuderio et al. Cancer Res. 1988, 48, 4827–4833). The test used determines the cellular dehydrogenase activity and permits a determination of the cell vitality and, indirectly, of the cell count. The cell lines used are the human cervical carcinoma cell line KB/HeLa (ATCC CCL17), the ovarial adeno carcinoma cell line SKOV-3 (ATCC HTB77), the human glioblastoma cell line SF-268 (NCl 503138) and the pulmonary carcinoma cell line NCl-H460 (NCl 503473).

In data set [5] the test system is human cervical carcinoma cell line KB/HeLa (ATCC CCL17). In words: XTT proliferation/cytotoxicity test, KB/HeLa. It counts as cell-based. Conditions: KB/HeLa cells.
Excerpt: as §2

Data set [6] has as its system human glioblastoma cell line SF-268 (NCl 503138). The data set can be described thus: XTT proliferation/cytotoxicity test, SF-268. It counts as cell-based. Conditions: SF-268 cells.
Excerpt: as §2

The test system of data set [7] is acute myeloid leukemia cell line LT12. In words: XTT proliferation test, LT12. Type of data set: cell-based. Conditions: Rattus norvegicus, LT12 wild-type cells.
Excerpt: as §1

For data set [8], the system named is pulmonary carcinoma cell line NCl-H460 (NCl 503473). In words: XTT proliferation/cytotoxicity test, NCI-H460. It counts as cell-based. Conditions: Homo sapiens, NCI-H460 cells.
Excerpt: as §2

For data set [9], the system named is murine P388 cell line (methylcholanthrene-induced lymphoid neoplasm). In words: XTT proliferation test, P388. Type of data set: cell-based. The conditions noted are these: Mus musculus, P388 wild-type cells.
Excerpt: as §1

For data set [10], the system named is murine cell line L1210. In words: XTT proliferation test, L1210. Type of data set: cell-based. The conditions noted are these: Mus musculus, L1210 wild-type cells.
Excerpt: as §1

`O=C(C(=O)N(C(=O)c1ccccc1)c1ccc2ncccc2c1)c1cn(Cc2ccc(Cl)cc2)c2ccccc12` [Compound 1, N-{2-[1-(4-Chlorobenzyl)-1H-indol-3-yl]-2-oxoacetyl}-N-quinolin-6-ylbenzamide] displayed a melting point of 213 °C. This compound yielded an IC50 in data set [1] of 0.577 µg/mL (≈ 1.06 µM). In [2], this compound registered an IC50 of 0.277 µg/mL (≈ 0.509 µM). In data set [3], the half-inhibitory concentration (IC50) was 0.252 µg/mL (≈ 0.463 µM). The compound also came in with a half-maximal inhibitory concentration (IC50) in data set [4] of 0.139 µg/mL (≈ 0.256 µM). Also, in data set [5], the midpoint of inhibition, the IC50, lay at 0.17 µg/mL (≈ 0.312 µM). In addition, in [6], the IC50 amounted to 0.261 µg/mL (≈ 0.48 µM). The compound also returned an IC50 in data set [7] of 0.226 µg/mL (≈ 0.415 µM). Also, half-maximal inhibition in [8] (IC50) required 0.222 µg/mL (≈ 0.408 µM). This compound also showed an IC50 in data set [9] of 0.219 µg/mL (≈ 0.403 µM). In data set [10], this compound registered a half-maximal inhibitory concentration (IC50) of 0.255 µg/mL (≈ 0.469 µM).

These data come from patent US7211588B2, “N-substituted indolyl-3-glyoxylamides, their use as medicaments and process for their preparation” (Zentaris GmbH, priority 2003, dated 2007).
